These compounds were tested against hTREM2 (Homo sapiens, UniProt Q9NZC2) (assay: TREM2 activity by cellular Syk phosphorylation (AlphaScreen/AlphaLISA) in TREM2/DAP12-HEK cells, used for Examples 1-305). Conditions: HEK293 Cells.
Format: cell-based
Set-up: expressed in transfected cells
Summary of the method: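 Phospho-Syk (Tyr525/526) over total Syk quantified by AlphaScreen in lysates of cloned TREM2/DAP12-overexpressing HEK293 cells after 45 min compound treatment at room temperature, 1% final DMSO. Values expressed relative to 100 nM anti-TREM2 antibody (positive) and isotype IgG (negative) controls; curves fitted with 4-parameter logistic model.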

hTREM2, sequence (Q9NZC2 19-230): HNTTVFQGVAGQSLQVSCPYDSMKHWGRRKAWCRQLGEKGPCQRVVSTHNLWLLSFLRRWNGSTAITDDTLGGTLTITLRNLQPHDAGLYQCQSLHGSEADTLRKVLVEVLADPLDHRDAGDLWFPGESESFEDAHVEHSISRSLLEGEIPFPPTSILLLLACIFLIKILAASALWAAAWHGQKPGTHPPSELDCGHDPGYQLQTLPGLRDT
hTREM2, sequence (O43914 22-113 partner): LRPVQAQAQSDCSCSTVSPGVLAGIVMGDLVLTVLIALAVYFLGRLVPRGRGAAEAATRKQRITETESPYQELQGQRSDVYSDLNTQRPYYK

Row | Structure (SMILES) | EC50 | hTREM2 Emax
1 | Cc1ccc2c(-c3ccc(Cl)cc3F)nc([C@H]3CCO[C@@H](c4cnn(C5CC5)c4)C3)nc2n1 (single isomer, unassigned) [Example 197] | ≤ 50 nM | ++++ (Emax>250)
2 | Cc1nc2cc([C@H]3C[C@@H](C)O[C@@H](c4cnn(C)c4)C3)nc(-c3ccc(Cl)cc3F)c2nc1C (single isomer, unassigned) [Example 230] | 50 to 500 nM | ++++ (Emax>250)
3 | Cc1ccc2c(-c3ccc(F)cc3F)nc([C@@H]3CCO[C@H](c4cnn(C)c4)C3)nc2n1 [Example 290, 4-(2,4-difluorophenyl)-7-methyl-2-((2S,4R)-2-(1-methyl-1H-pyrazol-4-yl)tetrahydro-2H-pyran-4-yl)pyrido[2,3-d] pyrimidine] | 50 to 500 nM | +++ (Emax>150 and ≤250)
4 | Cc1nc2cc(N3CCO[C@@H](c4cnn(C)c4)C3)cc(-c3ccc(Cl)cc3F)c2nc1C [Example 162, 5-(4-chloro-2-fluorophenyl)-2,3-dimethyl-7-((2S)-2-(1-methyl-1H-pyrazol-4-yl)-4-morpholinyl) quinoxaline] | ≤ 50 nM | ++++ (Emax>250)
5 | Cc1nc2nc(N3CCO[C@@H](c4cnn(C)c4)C3)nc(C3CCC4(CC3)CC4)c2nc1C [Example 137, 6,7-dimethyl-2-((2S)-2-(1-methyl-1H-pyrazol-4-yl)-4-morpholinyl)-4-(spiro[2.5]octan-6-yl)pteridine] | ≤ 50 nM | +++ (Emax>150 and ≤250)
6 | Cc1nc2nc([C@H]3CCO[C@@H](c4cnn(C5CC5)c4)C3)nc(-c3ccc(F)cc3F)c2nc1C [Example 305, 2-((2R,4S)-2-(1-cyclopropyl-1H-pyrazol-4-yl)tetrahydro-2H-pyran-4-yl)-4-(2,4-difluorophenyl)-6,7-dimethylpteridine] | 50 to 500 nM | +++ (Emax>150 and ≤250)
7 | Cc1cc([C@H]2C[C@H](c3nc(-c4ccc(F)cc4F)c4cc(C)c(C)nc4n3)CCO2)ccn1 (single isomer, unassigned) [Example 228] | ≤ 50 nM | +++ (Emax>150 and ≤250)
8 | Cc1ccc(-c2nc([C@@H]3CCO[C@@H](c4cnn(C)c4)C3)nc3nc(C)c(C)cc23)c(F)c1 [Example 268, 4-(2-fluoro-4-methylphenyl)-6,7-dimethyl-2-((2R,4R)-2-(1-methyl-1H-pyrazol-4-yl)tetrahydro-2H-pyran-4-yl)pyrido[2,3-d]pyrimidine] | 500 to 3000 nM | ++++ (Emax>250)
9 | Cc1nc2nc(N3CCO[C@@H](c4cnn(C)c4)C3)nc(N3CCC(F)(F)CC3)c2nc1C [Example 66, 4-(4,4-difluoro-1-piperidinyl)-6,7-dimethyl-2-((2S)-2-(1-methyl-1H-pyrazol-4-yl)-4-morpholinyl)pteridine] | 500 to 3000 nM | 
10 | Cc1cc([C@@H]2C[C@H](c3nc(-c4ccc(F)cc4F)c4nc(C)c(C)nc4n3)CCO2)ccn1 (single isomer, unassigned) [Example 210] | 50 to 500 nM | ++++ (Emax>250)
11 | COc1cc([C@H]2CN(c3cc4nc(C)ccc4c(-c4ccc(Cl)cc4F)n3)CCO2)ccn1 [Example 149, 5-(4-chloro-2-fluorophenyl)-7-((2S)-2-(2-methoxy-4-pyridinyl)-4-morpholinyl)-2-methyl-1,6-naphthyridine] | 50 to 500 nM | ++++ (Emax>250)
12 | Cc1nc2nc([C@@H]3CCO[C@@H](c4cnn(C)c4)C3)nc(-c3ccc(Cl)cc3F)c2nc1C [Example 179, 4-(4-chloro-2-fluorophenyl)-6,7-dimethyl-2-((2R,4R)-2-(1-methyl-1H-pyrazol-4-yl)tetrahydro-2H-pyran-4-yl)pteridine] | 500 to 3000 nM | ++++ (Emax>250)
13 | Cc1nc2nc(N3CCO[C@@H](c4cnn(C)c4)C3)nc(-c3ccc(F)cn3)c2nc1C [Example 292, (S)-4-(4-(5-fluoropyridin-2-yl)-6,7-dimethylpteridin-2-yl)-2-(1-methyl-1H-pyrazol-4-yl)morpholine] | 500 to 3000 nM | +++ (Emax>150 and ≤250)
14 | Cc1nc2nc([C@@H]3CCO[C@H](c4cnn(C)c4)C3)nc(-c3ccc(Cl)cc3F)c2nc1C [Example 242, 4-(4-chloro-2-fluorophenyl)-6,7-dimethyl-2-((2S,4R)-2-(1-methyl-1H-pyrazol-4-yl)tetrahydro-2H-pyran-4-yl)pteridine] | ≤ 50 nM | +++ (Emax>150 and ≤250)
15 | Cc1nc2nc([C@@H]3CCO[C@H](c4cnn(C5CC5)c4)C3)nc(-c3ccc(Cl)cc3F)c2nc1C (single isomer, unassigned) [Example 180] | 50 to 500 nM | +++ (Emax>150 and ≤250)
16 | Cn1cc([C@H]2CN(c3cc(-c4ccc(Cl)cc4F)c4cccnc4n3)CCO2)cn1 [Example 155, 4-(4-chloro-2-fluorophenyl)-2-((2S)-2-(1-methyl-1H-pyrazol-4-yl)-4-morpholinyl)-1,8-naphthyridine] | 500 to 3000 nM | ++ (Emax>100 and ≤150)
17 | Cc1ncc([C@@H]2CN(c3nc(-c4ccc(Cl)cc4F)c4cc(C)c(C)nc4n3)CCO2)cn1 (single isomer, unassigned) [Example 106] | 50 to 500 nM | +++ (Emax>150 and ≤250)

Row | Structure (SMILES) | EC50 | hTREM2 Emax
18 | Cc1cc([C@H]2CN(c3nc4nc(C)cnc4c([C@H]4C[C@H](C(F)(F)F)C4)n3)CCO2)cnn1 [Example 279, (S)-4-(7-methyl-4-((1r,3S)-3-(trifluoromethyl)cyclobutyl)pteridin-2-yl)-2-(6-methylpyridazin-4-yl)morpholine] | 500 to 3000 nM | +++ (Emax>150 and ≤250)
19 | Cc1nc2nc(N3CCO[C@H]([C@@H]4CCOC4)C3)nc(-c3ccc(F)cc3F)c2nc1C (single isomer, unassigned) [Example 35] | 50 to 500 nM | +++ (Emax>150 and ≤250)
20 | Cc1cc([C@H]2CN(c3nc(-c4ccc(F)cc4F)c4nc(C)c(C)nc4n3)CCO2)ccn1 [Example 33, 4-(2,4-difluorophenyl)-6,7-dimethyl-2-((2S)-2-(2-methyl-4-pyridinyl)-4-morpholinyl)pteridine] | ≤ 50 nM | ++++ (Emax>250)
21 | Cc1ccc(-c2nc([C@H]3CCO[C@@H](c4cnn(C)c4)C3)nc3nc(C)c(C)cc23)c(F)c1 (single isomer, unassigned) [Example 203] | ≤ 50 nM | +++ (Emax>150 and ≤250)
22 | Cc1ccc2c(-c3ccc(Cl)cc3F)nc([C@H]3CCO[C@@H](c4cnn(C)c4)C3)nc2n1 [Example 287, 4-(4-chloro-2-fluorophenyl)-7-methyl-2-((2R,4S)-2-(1-methyl-1H-pyrazol-4-yl)tetrahydro-2H-pyran-4-yl)pyrido[2,3-d] pyrimidine] | 500 to 3000 nM | +++ (Emax>150 and ≤250)
23 | CCc1ccc2c(-c3ccc(F)cc3F)nc(N3CCO[C@@H](c4cnn(C)c4)C3)nc2n1 [Example 167, 4-(2,4-difluorophenyl)-7-ethyl-2((2S)-2-(1-methyl-1H-pyrazol-4-yl)-4-morpholinyl) pyrido[2,3-d]pyrimidine] | 50 to 500 nM | ++++ (Emax>250)
24 | Cc1cc([C@@H]2CN(c3nc4nc(C)cnc4c([C@H]4C[C@@H](C(F)(F)F)C4)n3)CCO2)cnn1 (single isomer, unassigned) [Example 14] | 50 to 500 nM | ++ (Emax>100 and ≤150)
25 | Cc1ccc(-c2cc([C@@H]3CCO[C@H](c4cnn(C)c4)C3)nc3nc(C)c(C)nc23)c(F)c1 (single isomer, unassigned) [Example 189] | 500 to 3000 nM | +++ (Emax>150 and ≤250)
26 | Cc1cnc2c(-c3ccc(Cl)cc3F)cc([C@H]3CCO[C@@H](c4cnn(C)c4)C3)nc2n1 (single isomer, unassigned) [Example 185] | 50 to 500 nM | +++ (Emax>150 and ≤250)
27 | Cc1nc2nc(N3CCO[C@@H](c4cnn(C)c4)C3)nc([C@H]3C[C@H](C(F)(F)F)C3)c2nc1C [Example 42, 6,7-dimethyl-2-((2S)-2-(1-methyl-1H-pyrazol-4-yl)-4-morpholinyl)-4-(trans-3-(trifluoromethyl)cyclobutyl)pteridine] | ≤ 50 nM | ++ (Emax>100 and ≤150)
28 | Cc1cc([C@H]2CN(c3nc(-c4ccc(F)cc4F)c4ccc(C)nc4n3)CCO2)ccn1 [Example 93, 4-(2,4-difluorophenyl)-7-methyl-2-((2S)-2-(2-methyl-4-pyridinyl)-4-morpholinyl)pyrido[2,3-d]pyrimidine] | ≤ 50 nM | +++ (Emax>150 and ≤250)
29 | Cc1nc2nc(N3CCO[C@H]([C@@H]4CCOC4)C3)nc(-c3ccc(F)cc3F)c2nc1C [Example 243, (R)-4-(4-(2,4-difluorophenyl)-6,7-dimethylpteridin-2-yl)-2-((R)-tetrahydrofuran-3-yl)morpholine] | 50 to 500 nM | ++++ (Emax>250)
30 | Cc1nc2nc(N3CCO[C@@H](c4cnn(C)c4)C3)nc(C3CCCCC3)c2nc1C [Example 134, 4-cyclohexyl-6,7-dimethyl-2-((2S)-2-(1-methyl-1H-pyrazol-4-yl)-4-morpholinyl)pteridine] | 50 to 500 nM | + (Emax>45 and ≤100)
31 | Cc1cc([C@@H]2C[C@H](c3nc4nc(C)c(C)nc4c([C@H]4C[C@H](C(F)(F)F)C4)n3)CCO2)ccn1 (single isomer, unassigned) [Example 214] | 50 to 500 nM | ++++ (Emax>250)
32 | Cn1cc([C@H]2CN(c3cc4ncccc4c(-c4ccc(Cl)cc4F)n3)CCO2)cn1 [Example 234, (S)-4-(5-(4-chloro-2-fluorophenyl)-1,6-naphthyridin-7-yl)-2-(1-methyl-1H-pyrazol-4-yl)morpholine] | 500 to 3000 nM | +++ (Emax>150 and ≤250)
33 | Cc1cc([C@H]2CN(c3nc(-c4ccc(Cl)cc4F)c4ccc(C)nc4n3)CCO2)cnn1 (single isomer, unassigned) [Example 86] | ≤ 50 nM | ++++ (Emax>250)

Source: patent publication US11884675B2, “Heterocyclic compounds as triggering receptor expressed on myeloid cells 2 agonists and methods of use” (AMGEN INC., priority 2020, dated 2024)
